Converted amounts (≈) assume the structure as drawn. Read-outs that look alike come from different tables or passages of the source. Ends that are not written are not given here. Peptide text beside a SMILES is read from it.
What was measured:
[1] = Thermal unfolding followed by ECD spectroscopy; assay type: physicochemical; details: for thermal denaturation reversibility: ECD at 95°C, then re-measured after cooling, 5 min at 25°C; for Tm (melting temperature of the native protein structure): ECD at 228 nm, 25 to 95°C at 1°C min^−1, approx. 0.1 mg ml^−1 in H2O, inflection of sigmoidal fit; for native fold remains intact up to: thermal unfolding followed by ECD
Description: ECD spectroscopic measurements were performed using a Jasco-J815 spectropolarimeter (JASCO Corporation, Tokyo, Japan), in the far-UV range (185–260 nm). Protein samples were dissolved in pure H2O in approximately 0.1 mg ml^−1 concentration and measured in a 0.1 cm pathlength quartz cuvette. First, ECD spectra of samples were recorded at 25°C with a scan speed of […]. […] The system was allowed to equilibrate for 1 min before measurements were taken at each temperature point.
The obtained melting curves were fitted with an inverse sigmoidal function of which inflection point designated the melting temperature (Tm) of the native protein structure.
ECD spectra were also recorded at 95°C, the final temperature of the thermal unfolding experiments, then samples were allowed to cool and measured again after 5 min of equilibration at 25°C. The reported spectra are accumulations of 10 scans, from which the similarly recorded, corresponding solvent spectrum was subtracted. Data are given as molar ellipticities. Accurate protein sample concentrations for the corrections of ECD spectra were determined using analytical RP-HPLC.

[2] = tested on: Candida parapsilosis CBS 604
Description: (§1) Susceptibility tests were performed in low ionic strength broth medium (LCM: 0.5% glucose, 0.25% yeast extract, 0.0125% peptone (w/v)) and in RPMI 1640 medium (Sigma-Aldrich, St Louis, MO, USA) supplemented with 0.03% (w/v) L-glutamine and buffered to pH 7.0 with 0.165 M 4-morpholinopropanesulfonic acid (Sigma-Aldrich, St Louis, MO, USA).
(§2) Antifungal susceptibility tests were performed with nNFAP2, rNFAP2, and sNFAP2 and its peptide fragments in LCM medium against yeast isolates (10^5 cells ml^−1) according to the broth microdilution method described by Tóth et al. ([2016]). Final drug concentration ranged from 25 to 0.098 μg ml^−1 for rNFAP2 and sNFAP2, and from 100 to 6.25 μg ml^−1 for the synthetic peptide fragments. The rNFAP2 was tested against nine yeast isolates, while the sNFAP2 and the synthetic peptide fragments against C. albicans ATCC 10231, C. krusei CBS 573, C. parapsilosis CBS 604, and S. cerevisiae SZMC 0644.
(§3) LCM plates were incubated at 30°C, while RPMI 1640 plates at 35°C for 48 h without shaking, then the absorbance (OD620) was measured with a microtiter plate reader (SPECTROstar Nano, BMG Labtech, Ortenberg, Germany) after resuspension of the cultures with pipette. The absorbance of the untreated control cultures was referred to 100% growth in each case.
(§4) All susceptibility tests were repeated at least two times in three replicates.

[3] = tested on: Saccharomyces cerevisiae SZMC 0644
Description: as §1, §2, §3, §4

Candida krusei CBS 573 = tested on: Candida krusei CBS 573
Description: as §1, §2, §3, §4

[4] = tested on: Candida albicans ATCC 10231
Description: as §1, §2, §3, §4

[5] = tested on: C. albicans ATCC 10231 cells; experiment: Propidium iodide (PI) staining, plasma membrane disruption; assay type: cell-based, Candida albicans; details: treatment at MIC in LCM, 10 min, 30°C; 5 μg ml^−1 PI; fluorescence microscopy
Description: After the treatment, cells were washed with LCM, and then stained with 5 μg ml^−1 PI for 10 min at room temperature in the dark, and then they were washed again with LCM and resuspended in final volume of 100 μl LCM. Cells treated with 70% (v/v) ethanol for 10 min at 4°C were used as positive staining control. Untreated cells were used as negative staining control.
Yeast cells were visualized by light and fluorescence microscopy (Carl Zeiss Axiolab LR 66238C; Zeiss, Oberkochen, Germany) and photographed with a microscope camera (Zeiss AxioCam ERc 5s; Zeiss, Oberkochen, Germany).

[6] = tested on: Candida guilliermondii CBS 566; experiment: MIC, broth microdilution in LCM; assay type: cell-based; details: 10^5 cells ml^−1, 48 h, 30°C, MIC = growth ≤ 5% (OD620)
Description: as §1, §2, §3, §4

[7] = tested on: Candida tropicalis CBS 94; experiment: MIC, broth microdilution in LCM; assay type: cell-based; details: 10^5 cells ml^−1, 48 h, 30°C, MIC = growth ≤ 5% (OD620)
Description: as §1, §2, §3, §4

Candida glabrata CBS 138 = experiment: MIC, broth microdilution in LCM; assay type: cell-based; details: 10^5 cells ml^−1, 48 h, 30°C, MIC = growth ≤ 5% (OD620)
Description: as §1, §2, §3, §4

[8] = tested on: Candida lusitaniae CBS 6936; experiment: MIC, broth microdilution in LCM; assay type: cell-based; details: 10^5 cells ml^−1, 48 h, 30°C, MIC = growth ≤ 5% (OD620)
Description: as §1, §2, §3, §4

[9] = tested on: Schizosaccharomyces pombe SZMC 0142; experiment: MIC, broth microdilution in LCM; assay type: cell-based; details: 10^5 cells ml^−1, 48 h, 30°C, MIC = growth ≤ 5% (OD620)
Description: as §1, §2, §3, §4

[10] = LCM, 10^5 cells ml^−1, 48 h, 30°C, MIC = growth ≤ 5% (OD620)

IATSPYYACNCPNNCKHKKGSGCKYHSGPSDKSKVISGKCEWQGGQLNCIAT (disulfide (positions not given here)) [sNFAP2]
thermal denaturation reversibility [1]: reversible | Tm (melting temperature of the native protein structure) [1]: 74.94 °C | native fold remains intact up to [1]: approximately 70 °C | MIC [2, 10]: 1.56 µg/mL | MIC [3, 10]: 3.125 µg/mL | MIC (Candida krusei CBS 573; [10]): 12.5 µg/mL | MIC [4, 10]: 6.25 µg/mL

CC[C@H](C)[C@H](NC(=O)[C@H](CS)NC(=O)[C@H](CC(N)=O)NC(=O)[C@H](CC(C)C)NC(=O)[C@H](CCC(N)=O)NC(=O)CNC(=O)CNC(=O)[C@H](CCC(N)=O)NC(=O)[C@H](Cc1c[nH]c2ccccc12)NC(=O)[C@H](CCC(=O)O)NC(=O)[C@H](CS)NC(=O)[C@H](CCCCN)NC(=O)CN)C(=O)N[C@@H](C)C(=O)N[C@H](C(=O)O)[C@@H](C)O [Fr-3] (H-GKCEWQGGQLNCIAT-OH; N-terminus and C-terminus assumed)
Plasma membrane disruption (PI staining) [5]: did not disrupt the plasma membrane | MIC ([2]; CBS 604, 48 h): >100 µg/mL | MIC ([3]; SZMC 0644, 48 h): >100 µg/mL | MIC (Candida krusei CBS 573; CBS 573, 48 h): >100 µg/mL | MIC ([4]; ATCC 10231, 48 h): >100 µg/mL

NCCCC[C@H](NC(=O)[C@H](CCCCN)NC(=O)[C@H](Cc1c[nH]cn1)NC(=O)[C@H](CCCCN)NC(=O)[C@H](CS)NC(=O)[C@H](CC(N)=O)NC(=O)[C@@H](N)CC(N)=O)C(=O)NCC(=O)N[C@@H](CO)C(=O)NCC(=O)N[C@@H](CS)C(=O)O [Fr-4] (H-NNCKHKKGSGC-OH; N-terminus and C-terminus assumed)
Plasma membrane disruption (PI staining) [5]: prompt plasma membrane disruption effect | MIC ([2]; CBS 604, 48 h): 50 µg/mL (≈ 42.5 µM) | MIC ([3]; SZMC 0644, 48 h): 50 µg/mL (≈ 42.5 µM) | MIC (Candida krusei CBS 573; CBS 573, 48 h): 50 µg/mL (≈ 42.5 µM) | MIC ([4]; ATCC 10231, 48 h): 50 µg/mL (≈ 42.5 µM)

IATSPYYACNCPNNCKHKKGSGCKYHSGPSDKSKVISGKCEWQGGQLNCIAT (disulfide (positions not given here)) [nNFAP2]
thermal denaturation reversibility [1]: reversible | Tm (melting temperature of the native protein structure) [1]: 72.92 °C | native fold remains intact up to [1]: approximately 70 °C | MIC [2, 10]: 1.56 µg/mL | MIC [3, 10]: 3.125 µg/mL | MIC (Candida krusei CBS 573; [10]): 12.5 µg/mL | MIC [4, 10]: 6.25 µg/mL | MIC [6]: 1.56 µg/mL | MIC [7]: 1.56 µg/mL | MIC (Candida glabrata CBS 138): 1.56 µg/mL | MIC [8]: 3.125 µg/mL | MIC [9]: 1.56 µg/mL

KYHSGPSDKSKVIS [Fr-5]
MIC ([2]; CBS 604, 48 h): >100 µg/mL | MIC ([3]; SZMC 0644, 48 h): >100 µg/mL | MIC (Candida krusei CBS 573; CBS 573, 48 h): >100 µg/mL | MIC ([4]; ATCC 10231, 48 h): >100 µg/mL

NCCCC[C@H](NC(=O)CNC(=O)[C@H](CCCCN)NC(=O)[C@H](CC(N)=O)NC(=O)[C@H](CS)NC(=O)[C@@H](N)CS)C(=O)N[C@@H](CC(N)=O)C(=O)N[C@@H](CCCCN)C(=O)NCC(=O)N[C@@H](CO)C(=O)N[C@@H](Cc1c[nH]cn1)C(=O)O [Sh-Fr-4] (H-CCNKGKNKGSH-OH; N-terminus and C-terminus assumed)
Plasma membrane disruption (PI staining) [5]: prompt plasma membrane disruption effect | MIC ([2]; CBS 604, 48 h): 50 µg/mL (≈ 42.5 µM) | MIC ([3]; SZMC 0644, 48 h): 50 µg/mL (≈ 42.5 µM) | MIC (Candida krusei CBS 573; CBS 573, 48 h): 50 µg/mL (≈ 42.5 µM) | MIC ([4]; ATCC 10231, 48 h): 50 µg/mL (≈ 42.5 µM)

CC[C@H](C)[C@H](N)C(=O)N[C@@H](C)C(=O)N[C@H](C(=O)N[C@@H](CO)C(=O)N1CCC[C@H]1C(=O)N[C@@H](Cc1ccc(O)cc1)C(=O)N[C@@H](Cc1ccc(O)cc1)C(=O)N[C@@H](C)C(=O)N[C@@H](CS)C(=O)N[C@@H](CC(N)=O)C(=O)N[C@@H](CS)C(=O)N1CCC[C@H]1C(=O)O)[C@@H](C)O [Fr-6] (H-IATSPYYACNCP-OH; N-terminus and C-terminus assumed)
MIC ([2]; CBS 604, 48 h): >100 µg/mL | MIC ([3]; SZMC 0644, 48 h): >100 µg/mL | MIC (Candida krusei CBS 573; CBS 573, 48 h): >100 µg/mL | MIC ([4]; ATCC 10231, 48 h): >100 µg/mL

CC[C@H](C)[C@H](N)C(=O)N[C@@H](C)C(=O)NCC(=O)N[C@@H](C)C(=O)N[C@@H](Cc1c[nH]cn1)C(=O)N[C@@H](CCCCN)C(=O)N[C@@H](CS)C(=O)N[C@@H](CCCCN)C(=O)N1CCC[C@H]1C(=O)N[C@@H](CS)C(=O)N[C@@H](Cc1ccc(O)cc1)C(=O)NCC(=O)N[C@@H](Cc1ccc(O)cc1)C(=O)N[C@@H](CCCCN)C(=O)N[C@H](C(=O)N[C@@H](CC(N)=O)C(=O)N[C@@H](CO)C(=O)N[C@@H](CS)C(=O)N[C@@H](CS)C(=O)N[C@@H](CC(N)=O)C(=O)N[C@@H](CO)C(=O)N1CCC[C@H]1C(=O)N[C@@H](CC(N)=O)C(=O)O)[C@@H](C)O [Sh-Fr-2] (H-IAGAHKCKPCYGYKTNSCCNSPN-OH; N-terminus and C-terminus assumed)
Plasma membrane disruption (PI staining) [5]: prompt plasma membrane disruption effect

CC[C@H](C)[C@H](NC(=O)[C@H](CS)NC(=O)[C@H](CC(N)=O)NC(=O)[C@H](CC(C)C)NC(=O)[C@H](CCC(N)=O)NC(=O)CNC(=O)CNC(=O)[C@H](CCC(N)=O)NC(=O)[C@H](Cc1c[nH]c2ccccc12)NC(=O)[C@H](CCC(=O)O)NC(=O)[C@H](CS)NC(=O)[C@H](CCCCN)NC(=O)CNC(=O)[C@H](CO)NC(=O)[C@@H](NC(=O)[C@@H](NC(=O)[C@H](CCCCN)NC(=O)[C@H](CO)NC(=O)[C@H](CCCCN)NC(=O)[C@H](CC(=O)O)NC(=O)[C@H](CO)NC(=O)[C@@H]1CCCN1C(=O)CNC(=O)[C@H](CO)NC(=O)[C@H](Cc1c[nH]cn1)NC(=O)[C@H](Cc1ccc(O)cc1)NC(=O)[C@@H](N)CCCCN)C(C)C)[C@@H](C)CC)C(=O)N[C@@H](C)C(=O)N[C@H](C(=O)O)[C@@H](C)O [Fr-1] (H-KYHSGPSDKSKVISGKCEWQGGQLNCIAT-OH; N-terminus and C-terminus assumed)
MIC ([2]; CBS 604, 48 h): >100 µg/mL | MIC ([3]; SZMC 0644, 48 h): 100 µg/mL (≈ 32 µM) | MIC (Candida krusei CBS 573; CBS 573, 48 h): 100 µg/mL (≈ 32 µM) | MIC ([4]; ATCC 10231, 48 h): >100 µg/mL

CC[C@H](C)[C@H](N)C(=O)N[C@@H](C)C(=O)N[C@H](C(=O)N[C@@H](CO)C(=O)N1CCC[C@H]1C(=O)N[C@@H](Cc1ccc(O)cc1)C(=O)N[C@@H](Cc1ccc(O)cc1)C(=O)N[C@@H](C)C(=O)N[C@@H](CS)C(=O)N[C@@H](CC(N)=O)C(=O)N[C@@H](CS)C(=O)N1CCC[C@H]1C(=O)N[C@@H](CC(N)=O)C(=O)N[C@@H](CC(N)=O)C(=O)N[C@@H](CS)C(=O)N[C@@H](CCCCN)C(=O)N[C@@H](Cc1c[nH]cn1)C(=O)N[C@@H](CCCCN)C(=O)N[C@@H](CCCCN)C(=O)NCC(=O)N[C@@H](CO)C(=O)NCC(=O)N[C@@H](CS)C(=O)O)[C@@H](C)O [Fr-2] (H-IATSPYYACNCPNNCKHKKGSGC-OH; N-terminus and C-terminus assumed)
Plasma membrane disruption (PI staining) [5]: prompt plasma membrane disruption effect

— PMC5845869 (Frontiers in Microbiology, 2018)
